The values that follow are results of earlier work, collected in patent US5780426A, “Fivemer cyclic peptide inhibitors of diseases involving αv β3” (IXSYS, Incorporated, priority 1995, dated 1998).

Bridge positions count the residues as written; N and C are the ends. Ends that are not written are not given here.

The subject of one data set is αv β3 receptor. The settings on record: chicken embryo tumor model; Brooks et al., Cell 1994.
The target in another data set is integrin αv β3 (Homo sapiens, UniProt P05106+P06756). The settings on record: Koivunen et al. 1995.
Sequence of integrin αv β3 (P06756 31-889 limits assumed): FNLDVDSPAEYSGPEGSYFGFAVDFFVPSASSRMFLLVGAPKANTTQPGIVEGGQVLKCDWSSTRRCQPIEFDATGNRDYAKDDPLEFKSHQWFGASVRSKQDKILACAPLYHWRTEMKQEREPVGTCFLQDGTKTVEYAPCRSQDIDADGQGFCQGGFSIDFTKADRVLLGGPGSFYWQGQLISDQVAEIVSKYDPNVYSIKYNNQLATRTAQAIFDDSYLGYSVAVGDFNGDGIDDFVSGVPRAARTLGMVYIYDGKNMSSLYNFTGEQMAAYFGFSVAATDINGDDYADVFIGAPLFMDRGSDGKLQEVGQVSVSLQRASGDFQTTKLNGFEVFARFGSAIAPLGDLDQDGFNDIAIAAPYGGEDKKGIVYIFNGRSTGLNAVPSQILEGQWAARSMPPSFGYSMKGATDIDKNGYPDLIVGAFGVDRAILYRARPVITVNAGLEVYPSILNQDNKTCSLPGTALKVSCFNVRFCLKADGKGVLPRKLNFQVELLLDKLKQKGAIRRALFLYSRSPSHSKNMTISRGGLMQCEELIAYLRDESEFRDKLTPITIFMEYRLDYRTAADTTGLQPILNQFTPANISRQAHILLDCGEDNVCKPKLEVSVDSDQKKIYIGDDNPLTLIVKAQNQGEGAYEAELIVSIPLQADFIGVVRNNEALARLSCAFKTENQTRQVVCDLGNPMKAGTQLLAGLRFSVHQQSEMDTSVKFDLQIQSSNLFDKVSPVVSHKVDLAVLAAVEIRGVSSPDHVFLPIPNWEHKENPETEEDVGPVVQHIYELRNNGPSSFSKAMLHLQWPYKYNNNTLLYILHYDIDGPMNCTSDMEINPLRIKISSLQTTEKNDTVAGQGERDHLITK
Sequence of integrin αv β3 (P06756 891-1048 partner limits assumed): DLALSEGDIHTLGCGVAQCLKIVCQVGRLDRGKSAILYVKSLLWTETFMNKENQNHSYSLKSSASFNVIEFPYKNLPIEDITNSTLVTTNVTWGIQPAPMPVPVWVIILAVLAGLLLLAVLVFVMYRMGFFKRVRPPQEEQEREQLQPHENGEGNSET
Sequence of integrin αv β3 (P05106 27-788): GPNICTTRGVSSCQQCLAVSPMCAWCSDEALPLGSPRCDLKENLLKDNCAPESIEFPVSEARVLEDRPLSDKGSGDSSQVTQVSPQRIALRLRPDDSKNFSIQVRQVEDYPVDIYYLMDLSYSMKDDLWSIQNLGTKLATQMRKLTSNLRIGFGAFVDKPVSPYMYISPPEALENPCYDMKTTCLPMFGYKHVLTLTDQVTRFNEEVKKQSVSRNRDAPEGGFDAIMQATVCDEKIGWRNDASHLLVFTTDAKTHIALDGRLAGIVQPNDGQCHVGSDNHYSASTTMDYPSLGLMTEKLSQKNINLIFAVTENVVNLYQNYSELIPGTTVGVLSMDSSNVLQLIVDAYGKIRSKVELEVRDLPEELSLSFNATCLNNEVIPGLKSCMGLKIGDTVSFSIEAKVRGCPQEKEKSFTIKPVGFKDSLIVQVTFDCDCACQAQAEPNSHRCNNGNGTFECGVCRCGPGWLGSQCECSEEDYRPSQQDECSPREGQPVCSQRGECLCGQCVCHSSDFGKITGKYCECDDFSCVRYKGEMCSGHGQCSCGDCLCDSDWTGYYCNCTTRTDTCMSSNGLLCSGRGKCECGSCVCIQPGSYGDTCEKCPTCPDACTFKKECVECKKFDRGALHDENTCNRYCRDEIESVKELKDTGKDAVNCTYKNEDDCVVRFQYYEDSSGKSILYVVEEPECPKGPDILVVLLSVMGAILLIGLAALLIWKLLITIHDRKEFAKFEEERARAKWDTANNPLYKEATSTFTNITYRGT
The test system of another data set is osteoclasts. The settings on record: Horton et al. 1991.
A further data set deals with angiogenesis. The settings on record: Nicosia and Bonanno 1991.

As to `CC(C)[C@@H]1NC(=O)[C@@H](Cc2ccccc2)NC(=O)[C@H](CC(=O)O)NC(=O)CNC(=O)[C@H](CCCN=C(N)N)NC1=O` [cyclo-RGDfv], the “inhibition of angiogenesis / neovascularization” value in the data set on αv β3 receptor is “inhibit the neovascularization process”.

For “ACPSRLDSPCG (disulfide 2-10 (inferred)) [RLD peptide synthesized from a random cyclic phage library (Koivunen et al.)]”, the “selectivity for the integrin αv β3” value with integrin αv β3 is listed as “only partially selective”. Further, the “activity relative to an RGD peptide (fold lower)” value with integrin αv β3 (binding and cell adhesion assays) is listed as 100-1000 fold.

Take GRGDSP [Arg-Gly-Asp containing peptide]: in the data set with osteoclasts, the osteoclast function result was “disruption of osteoclast function”.

With Gly-Arg-Gly-Asp-Ser (GRGDS), in the data set on angiogenesis, the “inhibition of angiogenesis in vitro” value was “inhibits angiogenesis in vitro”.
